Measurements reported in patent EP4516309A1, “CRHR1 AGONISTS FOR USE IN THE TREATMENT OF SOCIAL ANXIETY DISORDERS” (Consejo Superior de Investigaciones Cientificas, priority 2023, dated 2025).

How the values were obtained:
inhibitory DREADD = biological target: T1, inhibitory DREADD (Homo sapiens, UniProt P08173, A203G/Y113C); assay: Repetitive social presentation test with chemogenetic silencing of ILA CRH cells; format: in vivo, CRH-Cre mice; conditions: CNO; iDREADD in ILA CRH cells
T1 construct: host or cells: ILA CRH+ neurons of CRH-Cre mice, Cre-dependent AAV2/8 transduction in vivo
T1 sequence (P08173 1-479 Y113C/A203G): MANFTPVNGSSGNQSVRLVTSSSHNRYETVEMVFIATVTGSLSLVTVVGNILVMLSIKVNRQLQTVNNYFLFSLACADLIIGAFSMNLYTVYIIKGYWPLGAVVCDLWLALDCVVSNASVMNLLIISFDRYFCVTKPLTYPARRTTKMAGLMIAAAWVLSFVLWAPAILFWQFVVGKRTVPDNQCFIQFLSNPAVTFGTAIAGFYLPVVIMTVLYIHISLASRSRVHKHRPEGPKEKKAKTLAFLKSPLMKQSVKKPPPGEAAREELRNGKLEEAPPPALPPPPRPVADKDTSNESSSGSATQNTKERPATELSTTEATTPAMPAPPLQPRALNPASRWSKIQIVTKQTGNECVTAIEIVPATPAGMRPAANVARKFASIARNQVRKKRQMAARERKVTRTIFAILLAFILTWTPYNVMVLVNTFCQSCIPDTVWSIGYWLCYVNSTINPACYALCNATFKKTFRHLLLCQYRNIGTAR
Method: (§1) Injection coordinates were the following (in mm from Bregma): AP: 1.65, ML: ±0.1, DV: -2.6. Injections were done bilaterally with 100 nl injected per site. AAV2/DJ hSyn.FLEX.mGFP.2A.Synatophysin-mRuby (Addgene #71760 prepared by the Stanford University vector core #1930), AAV2/8 hSyn.DIO.hM4D(Gi)-mCherry (Addgene #44362-AAV8), AAV2/8 hSyn.DIO.mCherry (Addgene #50459-AAV8), AAV2/5-hSyn-DIO-hM3D(Gq)-mCherry (Addgene, #44361-AAV5), AAV2/5 hsyn.DIO.mCherry (Addgene #50459-AAV5), AAV2/1 syn.FLEX.GCaMP6f.WPRE.SV40 (Addgene #100833-AAV1), AAV2/9 CMV-DIO-(mCherry-U6)-shRNA(anti-Crh) (VTA brain), AAV2/9 CMV-DIO-(mCherry-U6)-shRNA(scrambled) (VTA brain), AAV2/9 hSyn.FLEX.dsRed-shRNA(Vgat) (Addgene #67845), AAV 2/9 hSyn-flex-dsRed-shRNA(scrambled) (Addgene #71383), AAV2/2 CAG.FLEX.ArchT-tdTomato (Addgene #28305 prepared by the University of North Carolina vector core) and AAV2/2 CAG.FLEX.tdTomato (Addgene #28306 prepared by the University of North Carolina vector core) were injected into the ILA of CRH-Cre mice. Viruses expressed for a minimum of 2 weeks.
(§2) Repetitive social presentation test. […] Films were scored offline for social interaction by a trained observer blind to the experimental condition. Sniffing of any part of the body, allo-grooming and close following counted as social interaction. […]

excitatory DREADD = biological target: T2, excitatory DREADD (Homo sapiens, UniProt P20309, A239G/Y149C); assay: Repetitive social presentation test with chemogenetic activation of ILA CRH cells; format: in vivo, CRH-Cre mice; conditions: CNO; excitatory DREADD in ILA CRH neurons
T2 construct: host or cells: ILA CRH+ neurons of CRH-Cre mice, Cre-dependent AAV2/5 transduction in vivo
Method: as §1, §2

T2 sequence (P20309 whole entry Y149C/A239G): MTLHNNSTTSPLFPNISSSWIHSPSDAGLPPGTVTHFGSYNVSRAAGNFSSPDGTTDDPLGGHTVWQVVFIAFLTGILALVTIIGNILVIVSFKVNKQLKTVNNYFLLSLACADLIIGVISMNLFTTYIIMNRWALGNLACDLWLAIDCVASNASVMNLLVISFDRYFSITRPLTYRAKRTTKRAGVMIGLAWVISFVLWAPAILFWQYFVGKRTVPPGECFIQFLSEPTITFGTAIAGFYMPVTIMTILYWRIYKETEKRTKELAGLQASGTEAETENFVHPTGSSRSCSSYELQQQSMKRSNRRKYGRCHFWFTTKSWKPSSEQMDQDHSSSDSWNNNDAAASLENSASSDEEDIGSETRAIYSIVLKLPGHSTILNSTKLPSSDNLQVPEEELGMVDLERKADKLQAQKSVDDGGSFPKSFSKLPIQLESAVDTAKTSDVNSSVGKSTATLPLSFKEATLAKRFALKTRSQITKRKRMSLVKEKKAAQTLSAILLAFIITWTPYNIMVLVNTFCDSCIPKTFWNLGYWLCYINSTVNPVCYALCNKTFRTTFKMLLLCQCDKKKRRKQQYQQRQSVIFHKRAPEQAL

C[N+]1([O-])CCN(C2=Nc3cc(Cl)ccc3Nc3ccccc32)CC1 [CNO, clozapine N-oxide]
interaction time during the repeated presentations (inhibitory DREADD): showed no decrease in interaction time
decrease in social interaction (excitatory DREADD): slightly facilitated
